Literature values, collected in US20060167044A1, “Piperidine derivatives and their use as anti-inflammatory agents” (priority 2004, published 2006).

Test system: UUO kidneys
Settings: mouse, in vivo

## C[C@@H]1CN(Cc2ccc(F)cc2)CCN1C(=O)COc1ccc(Cl)cc1NC(N)=O [BX 471]
  CD8+/CCR5+ T cells (FACS analysis): comparable reduction
